Activity calls are given as the source filed them.
Key:
[1] = HEp-2 cell cytotoxicity, dose response, cytotoxicity control for RSV inhibitor project, HTS (AID 2410); format: functional; conditions: human respiratory syncytial virus
[2] = target: Luciferin 4-monooxygenase (Photinus pyralis, UniProt P08659); assay: firefly luciferase enzyme inhibitors, dose response, biochemical, luminescence (AID 1891)
[3] = target: T1, Corticotropin-releasing factor receptor 2/Corticotropin-releasing factor-binding protein (Homo sapiens, UniProt P24387+Q13324); assay: activators of CRF receptor 2 with binding protein – uHTS hits, confirmation (AID 602473); format: functional; conditions: read-out: EC50_Mean
T1 sequence (Q13324 whole entry): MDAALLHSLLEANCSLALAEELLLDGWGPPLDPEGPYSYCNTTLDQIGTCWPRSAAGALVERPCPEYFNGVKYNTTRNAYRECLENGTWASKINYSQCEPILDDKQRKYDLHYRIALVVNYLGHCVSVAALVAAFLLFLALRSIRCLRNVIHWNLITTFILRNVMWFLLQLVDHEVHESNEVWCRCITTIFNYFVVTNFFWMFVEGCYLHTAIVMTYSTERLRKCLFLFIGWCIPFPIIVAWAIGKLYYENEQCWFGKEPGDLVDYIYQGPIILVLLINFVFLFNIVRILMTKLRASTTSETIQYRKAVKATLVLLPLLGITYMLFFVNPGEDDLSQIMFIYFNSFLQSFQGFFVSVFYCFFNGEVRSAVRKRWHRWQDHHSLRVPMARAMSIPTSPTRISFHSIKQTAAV
T1 sequence (P24387 whole entry): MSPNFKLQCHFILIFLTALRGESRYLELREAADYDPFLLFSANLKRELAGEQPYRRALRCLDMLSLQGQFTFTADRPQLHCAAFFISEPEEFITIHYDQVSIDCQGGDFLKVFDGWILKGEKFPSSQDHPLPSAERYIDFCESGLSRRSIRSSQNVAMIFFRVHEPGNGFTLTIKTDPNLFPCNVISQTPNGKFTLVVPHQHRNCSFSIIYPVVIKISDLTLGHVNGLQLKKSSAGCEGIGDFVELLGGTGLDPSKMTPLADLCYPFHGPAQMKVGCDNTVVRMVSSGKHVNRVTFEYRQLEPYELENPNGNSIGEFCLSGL

[4] = Luminescence Cell-Based Dose Confirmation HTS to Identify Inhibitors of Platelet Dense Granule Release. [Related pubchem assays: 1663 (Primary HTS), 1678 (Summary of Project)]; format: functional
[5] = microbe, parasite or virus in culture; format: functional; conditions: Mycobacterium tuberculosis
[6] = system: INS1; assay: beta cell apoptosis inhibitors, cytokine rescue, dose response, luminescence, retest (AID 449756); format: functional, cell-based; conditions: Rattus norvegicus;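 further: cell death triggered by IL-1 beta plus TNF-alpha plus IFN-gamma mixture; protective hits raise ATP signal compared with cytokine alone wells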
[7] = target: T2, Rac GTPase-activating protein 1 (Homo sapiens, UniProt Q9H0H5); assay: MgcRacGAP GTPase-activating activity inhibitors, confirmation, biochemical, ADP Hunter fluorescence, primary and confirmatory (AID 624330); format: functional
T2 sequence (Q9H0H5 whole entry): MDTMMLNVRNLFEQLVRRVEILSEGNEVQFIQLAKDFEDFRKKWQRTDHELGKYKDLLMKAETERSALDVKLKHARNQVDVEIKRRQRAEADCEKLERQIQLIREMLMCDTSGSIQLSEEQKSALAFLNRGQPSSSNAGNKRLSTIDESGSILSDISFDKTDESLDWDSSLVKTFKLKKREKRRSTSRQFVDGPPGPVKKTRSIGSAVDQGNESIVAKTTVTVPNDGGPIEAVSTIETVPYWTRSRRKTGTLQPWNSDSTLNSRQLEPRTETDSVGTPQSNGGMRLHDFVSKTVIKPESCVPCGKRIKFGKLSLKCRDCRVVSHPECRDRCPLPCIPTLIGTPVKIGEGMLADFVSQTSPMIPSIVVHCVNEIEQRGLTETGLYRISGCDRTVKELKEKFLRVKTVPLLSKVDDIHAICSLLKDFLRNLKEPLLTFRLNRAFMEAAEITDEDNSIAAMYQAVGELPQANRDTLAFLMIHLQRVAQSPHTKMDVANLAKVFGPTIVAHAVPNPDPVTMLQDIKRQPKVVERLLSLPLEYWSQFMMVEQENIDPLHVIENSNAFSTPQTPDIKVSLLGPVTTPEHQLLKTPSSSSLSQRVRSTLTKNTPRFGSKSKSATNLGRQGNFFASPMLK

[8] = NIH-3T3 fibroblast cytotoxicity, dose response, cytotoxicity control, cell-based, fluorescence, Alamar Blue, secondary assay (AID 2327); format: functional;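 further: NIH-3T3 mouse fibroblasts cultured with fluconazole at 8 µg/mL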
[9] = C. albicans growth with fluconazole, confirmation, fluorescence, retest (AID 2467); format: functional, cell-based
[10] = target: T3, Replicative DNA helicase DnaB (Mycobacterium tuberculosis, UniProt P9WMR3); assay: DnaB intein splicing inhibitors, dose response, biochemical, cell-free fluorescence (AID 449749); format: functional
T3 sequence (P9WMR3 whole entry): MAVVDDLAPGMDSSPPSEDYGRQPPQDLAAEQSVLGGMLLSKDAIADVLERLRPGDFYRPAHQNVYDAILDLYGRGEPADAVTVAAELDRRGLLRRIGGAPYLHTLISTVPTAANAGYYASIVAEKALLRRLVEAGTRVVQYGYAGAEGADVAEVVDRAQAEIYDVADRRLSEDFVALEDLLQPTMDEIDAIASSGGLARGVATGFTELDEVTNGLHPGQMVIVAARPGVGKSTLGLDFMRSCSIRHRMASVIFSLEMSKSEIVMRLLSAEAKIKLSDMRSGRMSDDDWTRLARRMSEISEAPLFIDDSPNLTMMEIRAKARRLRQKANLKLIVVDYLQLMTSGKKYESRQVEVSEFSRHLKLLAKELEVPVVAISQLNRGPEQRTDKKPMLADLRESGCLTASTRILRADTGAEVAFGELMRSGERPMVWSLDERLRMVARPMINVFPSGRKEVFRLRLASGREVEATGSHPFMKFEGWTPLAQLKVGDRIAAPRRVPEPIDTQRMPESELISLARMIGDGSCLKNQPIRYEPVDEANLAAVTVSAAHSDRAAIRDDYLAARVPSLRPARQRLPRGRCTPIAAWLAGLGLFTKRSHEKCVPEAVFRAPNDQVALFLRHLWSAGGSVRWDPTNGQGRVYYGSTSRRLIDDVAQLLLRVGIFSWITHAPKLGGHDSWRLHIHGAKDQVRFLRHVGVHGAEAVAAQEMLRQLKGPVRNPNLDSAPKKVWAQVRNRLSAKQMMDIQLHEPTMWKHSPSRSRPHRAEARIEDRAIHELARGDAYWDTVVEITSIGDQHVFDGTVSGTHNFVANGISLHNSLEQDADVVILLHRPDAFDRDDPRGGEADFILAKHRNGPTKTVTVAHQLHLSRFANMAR

[11] = target: T4, Protein RecA (Mycobacterium tuberculosis, UniProt P9WHJ3); assay: Fluorescence Cell-Free Homogeneous Dose Retest to Identify Inhibitors of RecA-Intein Splicing Activity. [Related pubchem assays (depositor defined):AID2097, AID2223, AID489010, AID492950]; format: functional
T4 sequence (P9WHJ3 whole entry): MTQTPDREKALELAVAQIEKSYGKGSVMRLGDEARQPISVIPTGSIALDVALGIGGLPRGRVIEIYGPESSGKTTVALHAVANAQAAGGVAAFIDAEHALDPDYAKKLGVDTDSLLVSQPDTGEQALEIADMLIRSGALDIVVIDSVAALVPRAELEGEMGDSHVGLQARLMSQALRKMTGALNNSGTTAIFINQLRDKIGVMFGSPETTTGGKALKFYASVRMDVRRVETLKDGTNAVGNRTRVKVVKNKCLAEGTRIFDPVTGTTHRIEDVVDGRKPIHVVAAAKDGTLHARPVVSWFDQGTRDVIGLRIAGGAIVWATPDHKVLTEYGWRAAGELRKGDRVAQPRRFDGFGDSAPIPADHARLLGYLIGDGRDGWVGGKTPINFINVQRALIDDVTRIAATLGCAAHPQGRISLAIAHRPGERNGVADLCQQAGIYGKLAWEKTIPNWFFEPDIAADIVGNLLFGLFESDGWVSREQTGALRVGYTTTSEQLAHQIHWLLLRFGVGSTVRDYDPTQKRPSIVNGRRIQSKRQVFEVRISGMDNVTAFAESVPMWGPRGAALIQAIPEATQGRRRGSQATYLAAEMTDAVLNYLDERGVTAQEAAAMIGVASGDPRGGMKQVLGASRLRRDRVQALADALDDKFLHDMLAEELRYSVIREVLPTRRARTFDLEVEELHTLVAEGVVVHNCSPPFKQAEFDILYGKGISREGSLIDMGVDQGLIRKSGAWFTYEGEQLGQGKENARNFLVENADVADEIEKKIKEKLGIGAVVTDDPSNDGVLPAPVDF

Luciferin 4-monooxygenase, sequence (P08659 whole entry): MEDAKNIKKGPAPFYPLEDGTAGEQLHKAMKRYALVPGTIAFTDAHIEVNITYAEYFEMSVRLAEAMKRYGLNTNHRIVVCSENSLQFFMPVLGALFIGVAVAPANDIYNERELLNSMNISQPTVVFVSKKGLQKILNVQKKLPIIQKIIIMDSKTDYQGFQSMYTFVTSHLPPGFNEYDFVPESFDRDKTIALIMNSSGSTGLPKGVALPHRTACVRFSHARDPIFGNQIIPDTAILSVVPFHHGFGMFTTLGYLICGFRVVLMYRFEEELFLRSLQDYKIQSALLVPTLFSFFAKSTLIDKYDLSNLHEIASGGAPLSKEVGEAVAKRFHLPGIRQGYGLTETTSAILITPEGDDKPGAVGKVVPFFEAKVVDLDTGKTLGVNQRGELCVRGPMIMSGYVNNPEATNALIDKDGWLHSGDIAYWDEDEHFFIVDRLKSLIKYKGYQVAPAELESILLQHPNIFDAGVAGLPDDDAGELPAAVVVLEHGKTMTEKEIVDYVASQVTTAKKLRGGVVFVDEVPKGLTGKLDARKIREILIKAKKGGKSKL

For `COc1ccc(-c2oc3cccnc3c2C#CCO)cc1`, the CC50 [1] was > 50 µM (active).
In the case of `Cc1ccccc1C(=O)NC(=S)Nc1sc2c(c1C#N)CCC(C)C2` (stereo not drawn), the CC50 [1] is reported as 36.8 µM (active).
With `COC(=O)c1ccc(CSc2nc3ccccc3[nH]2)o1` the CC50 [1] was > 50 µM (active).
For `Cc1[nH]c2ccccc2c1N=Nc1ccccc1F`, the CC50 [1] was 18 µM (active).
For `CC1=[N+]([O-])C(C)(C)N(O)C1(C)C`, the EC50 [2] was > 112 µM (not active), the EC50 [3] was > 53 µM (inactive) and the EC50 [4] was > 112 µM (not active).
For `CC1(C)CC(=O)C2=C(C1)N=C(Nc1nc3ccccc3o1)NC2c1ccccn1` (stereo not drawn), the CC50 [5] was > 40 µM (active).
For `O=C(Oc1ccccc1-c1nnco1)c1ccc(Cl)cc1`, the CC50 [5] was 21.8 µM (active).
For `O=C1C=C(c2ccccc2)C(c2ccccc2)C1O` (stereo not drawn), the EC50 [3] was > 53 µM (inactive).
With `CCN(CC)c1ccc(/N=C/c2ccccc2[N+](=O)[O-])cc1` the AC50 [6] was 33.2 µM (active) and the IC50 [7] was 30.5 µM (active).
With `CCOc1ccc(NC(=O)CCC(=O)N/N=C/c2ccc3c(c2)OCO3)cc1` the EC50 [8] was > 150 µM (inactive) and the EC50 [9] was > 38 µM (not active).
For `Oc1c(/C=N/Cc2ccc(F)cc2)[nH]c2ccc(Br)c(Cl)c12`, the CC50 [1] was 29.1 µM (active), the AC50 [10] was 61.8 µM (active) and the EC50 [11] was 2.44 µM (active).
For `CN(C)c1nc(NCc2ccccc2)nc(N/N=C/c2ccc3c(c2)OCO3)n1`, the CC50 [5] was > 40 µM (active).

Reference: ChEMBL document CHEMBL1201862, “PubChem BioAssay data set” (2004)
